In patent US8722626B2, “Method for controlling fibrosis and other pathological deposits in tissues comprising administering a GHRP-6 composition” (Centro de Ingenieria Genetica y Biotecnologia, priority 2006, dated 2014):

How the values were obtained:
[1] = test system: human keloid fragments xeno-transplanted in athymic mice; assay: Human keloid fragments xeno-transplanted into athymic mice (Example 7); format: in vivo, mouse
From the text: To study the effect of peptides GHRP-6, GHRP-2, Hexarelin and/or Ghrelin in eradicating the pathological deposits of physiological material in the skin, human keloid fragments were xeno-transplanted into the dorsal region in athymic mice. After 72 hrs of evolution, to corroborate grafting and viability of xeno-transplants, the animals (N=6) were randomly distributed into the following experimental groups: • A—Saline control group (vehicle of the active principles). • B—Group receiving GHRP-6. • C—Group receiving GHRP-2. • D—Group receiving Ghrelin. • E—Group receiving Hexarelin. • Treatments were applied once every 24 hrs during 7 days. The substances were infiltrated at the edges in the implants, for local bioavailability of the active principles, at dosages from 5 micrograms to 1 milligram. After the treatment period, the animals were sacrificed and the implants extracted to evaluate the pharmacological response to every substance. Samples were weighed and fragmented for histological studies and biochemical determinations of collagen. The fragments for histological studies were fixed in 10% formalin neutral, and those fragments for biochemical analyses were stored at −70° C. • The parameters studied were: • a—Wet weight of the graft collected. • b—Hydroxiproline content in the tissue. • c—Number of microscopic fields with tissue positive to Picrosirius red staining and trichromic Masson's staining.

[2] = test system: hepatic fibrosis in male Wistar rats (bile duct ligation); assay: Reverting hepatic fibrosis induced by ligation of the common bile duct in rats (Example 1); format: in vivo, rat; parameters: SODt (oxidative stress marker) / Catalase (oxidative stress marker) / HPT (oxidative stress marker) / MDA (oxidative stress marker): unit not given here; settings: for Grade 0 (null) hepatic fibrosis, animals per group / Grade 1 (moderate) hepatic fibrosis, animals per group / Grade 2 (limited) hepatic fibrosis, animals per group / Grade 3 (severe) hepatic fibrosis, animals per group / Grade 4 (very severe) hepatic fibrosis, animals per group: three weeks; for GGT serum level / GOT serum level / GPT serum level / Content of OH—P (hydroxiproline) in liver: end of three weeks of treatment; for Catalase (oxidative stress marker) / HPT (oxidative stress marker) / MDA (oxidative stress marker) / SODt (oxidative stress marker): liver samples, end of third week of treatment
Experimental: The present experiment was conducted to evaluate the effect of the GHRP-6-based pharmaceutical composition on reverting the hepatic fibrosis in rats. Hepatic fibrosis was induced in male Wistar rats of 250 g of average body weight by ligating the external bile duct. For this purpose, rats were anesthetized with a ketamine/xylazine combination and subjected to laparotomy to expose the common bile duct. The duct was double-ligated with chromium catgut 4-0. After surgery, animals were randomly distributed into 3 experimental groups of 20 rats each: (1) Control placebo group, receiving physiological saline solution, (2) Group receiving the GHRP-6 at a 100 μg/kg dosage, and (3) Group receiving the GHRP-6 at a 400 μg/kg dosage. Treatments were daily administered during three weeks after inducing the fibrosis of the liver parenchyma. All the treatments were started three weeks after the appearance of fibrosis. The follow up of the hepatic damage was conducted by weekly ultrasound examinations of the projection area of this organ, the progress of serum levels of GOT and GPT transaminases, gamma glutamyl transferase (GGT) levels and the volume of ascitis. Treatments with GHRP-6 or placebo were applied by the intraperitoneal route once daily. When treatments concluded, animals were sacrificed and blood serum and the liver were collected. Liver fragments were fixed in formalin neutral and processed by hematoxylin/eosin staining, or by Masson's trichromic staining, to evaluate the general damage and the severity of fibrotic indurations. Other fragments of liver tissues were stored at −70° C. until processing to determine the content of hydroxiproline by acid hydrolysis in 1N HCl, and also the intrahepatic levels of redox metabolism markers. Biochemical determinations were carried out by calculating the total protein content by the Bradford's method.

[3] = infiltrated at the edges in the implants once every 24 hrs during 7 days, 5 micrograms to 1 milligram
[4] = Dosage I: 100 μg/kg i.p. once daily, N = 16
[5] = Dosage I: 100 μg/kg i.p. once daily
[6] = Dosage II: 400 μg/kg i.p. once daily, N = 20
[7] = Dosage II: 400 μg/kg i.p. once daily

GHRP-6 was tested, and the “No. of fields positive to collagen-specific staining” value ([1]; Picrosirius red and trichromic Masson's staining, 4× and 10× averaged, infiltrated once every 24 hrs during 7 days) was 11.45, the “No. of microscopic fields with mast cells (20X magnif.)” value ([1]; aniline blue staining, infiltrated once every 24 hrs during 7 days) was 9.54 ± 2.15 and the “Hydroxiproline content in the tissue” value [1, 3] was 88.27 ± 4.61 µg/g. For the same substance, the “Wet weight of the graft collected” value [1, 3] was 6.71 ± 1.18 a grams, the “Grade 0 (null) hepatic fibrosis, animals per group” value [2, 4] was 5 and the “Grade 1 (moderate) hepatic fibrosis, animals per group” value [2, 4] was 9. For the same substance, the “Grade 2 (limited) hepatic fibrosis, animals per group” value [2, 4] was 2, the “Grade 3 (severe) hepatic fibrosis, animals per group” value [2, 4] was 0 and the “Grade 4 (very severe) hepatic fibrosis, animals per group” value [2, 4] was 0. For the same substance, the GGT serum level [2, 5] was 71.53 ± 22.14 U/I, the GOT serum level [2, 5] was 61.58 ± 16.10 IU/I and the GPT serum level [2, 5] was 81.71 ± 30.90 IU/I. The “Content of OH—P (hydroxiproline) in liver” value [2, 4] was 56.71 ± 8.11 μg/g of total proteins, the “Grade 0 (null) hepatic fibrosis, animals per group” value [2, 6] was 8 and the “Grade 1 (moderate) hepatic fibrosis, animals per group” value [2, 6] was 11. The “Grade 2 (limited) hepatic fibrosis, animals per group” value [2, 6] was 1, the “Grade 3 (severe) hepatic fibrosis, animals per group” value [2, 6] was 0 and the “Grade 4 (very severe) hepatic fibrosis, animals per group” value [2, 6] was 0. It also gave a GGT serum level [2, 7] of 25.56 ± 8.63 U/I, a GOT serum level [2, 7] of 30.41 ± 6.11 IU/I and a GPT serum level [2, 7] of 60.64 ± 19.87 IU/I. For the same substance, the “Content of OH—P (hydroxiproline) in liver” value [2, 6] was 16.15 ± 1.025 μg/g of total proteins, the “Deposit of collagenous and extracellular materials in liver parenchyma (overall result)” value ([2]; ligation of the common bile duct, morphological and biochemical data) was “eradicate and control the deposit of collagenous and extracellular materials in liver parenchyma” and the “Catalase (oxidative stress marker)” value ([2]; Dosage I: 100 μg/kg) was 68.50 ± 12.73. For the same substance, the “HPT (oxidative stress marker)” value ([2]; Dosage I: 100 μg/kg) was 43.06 ± 1.83, the “MDA (oxidative stress marker)” value ([2]; Dosage I: 100 μg/kg) was 0.14 ± 0.02 and the “SODt (oxidative stress marker)” value ([2]; Dosage I: 100 μg/kg) was 11058.07 ± 744.61. The “Catalase (oxidative stress marker)” value ([2]; Dosage II: 400 μg/kg) was 31.50 ± 4.3, the “HPT (oxidative stress marker)” value ([2]; Dosage II: 400 μg/kg) was 21.16 ± 1.71 and the “MDA (oxidative stress marker)” value ([2]; Dosage II: 400 μg/kg) was 0.08 ± 0.01. For the same substance, the “SODt (oxidative stress marker)” value ([2]; Dosage II: 400 μg/kg) was 21029.87 ± 498.28.
